Results reported in patent US11098040B2, “Compounds and methods of use” (Ferro Therapeutics, Inc., priority 2018, dated 2021).
Read-outs that look alike come from different tables or passages of the source. Blank lines part the entries; values can stand above or below the compound they belong to.

Experiments:
HL-60 = test: Cell viability assay (CellTiter Glo), leukemia cell line HL-60; assay type: cell-based; settings: Homo sapiens, 96 hours
Description: (§1) Cell viability assay was performed to assess the potency of the compounds in human cancer cell lines KP4 (pancreatic ductal adenocarcinoma), MiaPaCa-2 (pancreatic carcinoma), AsPC-1 (pancreatic adenocarcinoma, ascites), 143B (osteosarcoma), and SJSA-1 (osteosarcoma). Selected compounds were also assayed in a human breast epithelial cell line MCF-10A, a nontumorigenic cell line as a control to assess differential activity. Cells at a density of 500-5,000 cells/well were seeded in 96-well plates and incubated at 37° C. overnight. A series of 9 different concentrations of compound stocks (500×) were created by 3-fold serial dilution in DMSO. These compounds were further diluted in culture media and then added to cells so that the final DMSO concentration was equal to 0.25% or less. After 96 hours of incubation, 50 μL of CellTiter Glo reagent (Promega) was added to each well and luminescence was measured after 10 minutes using EnVision (PerkinElmer). Compounds titrated from top concentration of up to 30 μM. The select compounds were tested initially from 30 μM as the top concentration in duplicates (range of 4.6 nM-30 μM). […] Luminescence from cells treated with DMSO alone was set as Max and % of inhibition was calculated as follows: Inhibition %=(Max-Sample value)/Max*100. Data was analyzed using XL-fit software (ID Business Solutions Ltd.). IC50, relative IC50, or % of top inhibition was calculated.
(§2) A group of selected analogs were further profiled in cell viability assays described above in multiple additional cancer cell lines, including lung cancer, melanoma, hepatocarcinoma, pancreatic cancer, leukemia, lymphoma, ovarian cancer, breast cancer, colon cancer, and sarcoma cell lines. Initial cell seeding numbers were adjusted for each cell line. Typically, 500-5000 cells/well for adherent cells and 5000-10000/well for suspension cells were seeded in 96-well plates.
(§3) The results of the assay in the leukemia cell lines are given in Table 16a for MV-4-1 and Table 16b for HL-60 and Kasumi-1.

[1] = mouse, in vivo, ip, 15 mg/kg
Description: (§9) Test compounds were dissolved either in 20% (w/w) sulfobutylether-β-cyclodextrin (SBECD) pH 3-7 aqueous solution, or 5% DMSO/(30-50%) PEG400/(65-45%) water. Test compound dosing solutions were administered intraperitoneally to Balb/c nude male mice. Blood samples were collected at various time points with EDTA-K2 as anti-coagulant on ice, and centrifuged to obtain plasma samples. The plasma samples were stored at −20° C. until analysis.
(§10) Into 10 μL of test compound plasma samples were added 2 μL DMSO then 200 μL of 5 ng/mL internal standard (VTSD) (Terfenadine) in MeOH/acetonitrile. The mixture was vortexed for 1 minute and centrifuged at 4000 rpm for 15 minutes. Calibration standards were prepared by spiking known amount of test compounds into blank plasma samples. The supernatant solution was diluted 5 times with Acetonitrile/H2O (with 0.1% formic acid, 1:1, v/v), and this is the solution for LC-MS/MS analysis. The limit of quantification (LOQ) was 1 ng/mL.
(§11) Typical HPLC mobile phases were mobile phase of 5 mM NH4OAc (with 0.05% formic acid); and mobile phase B of acetonitrile (with 0.1% formic acid). The HPLC column was Kinetex C18 (30 mm×3.00 mm). Mass spectrometer was tuned for each compound in the Multiple Reaction Monitoring (MRM) scanning mode and in the electrospray ionization mode. The lower limit of quantification was 1-10 ng.
(§12) In this study, K601 (RSL3) was formulated in 5% DMSO/30% PEG 400/65% water at 1.5 mg/mL. The volume of injection via intraperitoneal route was 10 mL/kg for a dose of 15 mg/kg. […] The limit of quantification (LOQ) was 1 ng/mL.
(§13) In this study, the compound was formulated in 20% (w/w) sulfobutylether-β-cyclodextrin (SBECD), pH 5 aqueous solution at 1.5 mg/mL. The volume of injection via intraperitoneal route was 10 mL/kg for a dose of 15 mg/kg. The concentration of test compounds in plasma were analyzed by LC-MS with the method described above. The limit of quantification was 1 ng/mL.
(§14) It was formulated in 5% DMSO/50% PEG400/45% Water pH adjusted to 4 with HCl as an aqueous solution at 1.0 mg/mL. The volume of injection via intraperitoneal route was 15 mL/kg for a dose of 15 mg/kg. The concentration of test compounds in plasma were analyzed by LC-MS with the method described above. The limit of quantification was 1 ng/mL. […] The limit of quantification was 1 ng/mL.
(§15) Compounds 24 and 28 were formulated in 20% (w/w) sulfobutylether-β-cyclodextrin (SBECD) with pH 3 and pH 4, respectively, as an aqueous solution at 1.0 mg/mL. Compound 67 was in 5% DMSO/50% PEG 400/45% water pH 4 (adjusted with 12 N HCl) aqueous solution at 1.0 mg/mL. The injection volume via intraperitoneal route was 10 mL/kg for a dose of 15 mg/kg. The concentration of test compounds in plasma were analyzed by LC-MS with the method described above. The limit of quantification was 1 ng/mL.

H1299 = test: Cell viability assay (CellTiter Glo), lung cancer cell line H1299; assay type: cell-based; settings: Homo sapiens, NCI-H1299, 96 hours
Procedure, shortened: (§4)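 Seeding density was adjusted per line, and cells grew overnight before treatment with a 3-fold serial dilution (9 points, starting at up to 30 μM) in duplicate; DMSO stayed at 0.25% or below. Luminescence was measured 10 min after CellTiter Glo addition at 96 h.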

SK-OV-3 = test: Cell viability assay (CellTiter Glo), ovarian cancer cell line SK-OV-3; assay type: cell-based; settings: Homo sapiens, 96 hours
Procedure, shortened: as §4

SJSA-1 = test: Cell viability assay (CellTiter Glo), osteosarcoma SJSA-1; assay type: cell-based; settings: Homo sapiens, 96 hours
Procedure, shortened: (§5)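 Cells seeded at 500-5,000/well overnight, then 96 h exposure to 9-point 3-fold dilutions from up to 30 μM (4.6 nM-30 μM), final DMSO ≤0.25%. Viability by CellTiter Glo luminescence; inhibition relative to DMSO-only cells, yielding IC50, relative IC50 or % top inhibition.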

Huh7 = test: Cell viability assay (CellTiter Glo), hepatocellular carcinoma Huh7; assay type: cell-based; settings: Homo sapiens, Huh-7, 96 hours
Procedure, shortened: as §4

[2] = Pharmacokinetic (PK) studies via intravenous infusion, Sprague-Dawley rat; assay type: in vivo; settings: male, plasma, one rat
Description: Test compound dosing solutions were administered via intravenous infusion to Sprague-Dawley male rat.
Into 50 μL of test compound plasma samples were added 5 μL DMSO then 200 μL of 25 ng/mL internal standard (ITSD) (Verapamil) in MeOH/acetonitrile (1:1, v/v). […] The limit of quantification (LOQ) was 1 ng/mL.
The lower limit of quantification was 1-10 ng. A typical HPLC gradient table is described below: […]
The PK profiles of compound 24 and compound 28 are shown below. […] The volume of injection via intravenous infusion route was adjusted for a dose of 2, 4 and 8 mg/kg. […] The limit of quantification was 1 ng/mL.

PANC1 = test: Cell viability assay (CellTiter Glo), pancreatic cell line PANC1; assay type: cell-based; settings: Homo sapiens, PANC-1, 96 hours
Procedure, shortened: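 PANC1 cells seeded overnight at 37 °C, then exposed for 96 h to a 9-point 3-fold dilution series from up to 30 μM, final DMSO ≤0.25%. Viability read by CellTiter Glo luminescence. % inhibition relative to DMSO-only wells, fitted to IC50, relative IC50 or % top inhibition.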

MCF-10A = test: Cell viability assay (CellTiter Glo), non-tumorigenic breast epithelial cell line MCF-10A; assay type: cell-based; settings: Homo sapiens, 96 hours
Procedure, shortened: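 MCF-10A cells (500-5,000/well) treated 96 h at 37° C with 9-point 3-fold dilutions from up to 30 μM, ≤0.25% DMSO, in duplicate. Viability by CellTiter Glo luminescence; % inhibition versus DMSO-only wells gave IC50, relative IC50 or % top inhibition. Paclitaxel positive control.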

HT-1080 luc2 = test: Cell viability assay (CellTiter Glo), fibrosarcoma HT-1080 luc2; assay type: cell-based; settings: Homo sapiens
Procedure, shortened: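 HT-1080 luc2 fibrosarcoma cells seeded overnight, then exposed 96 h at 37° C to 9-point 3-fold dilutions (top up to 30 μM; DMSO ≤0.25% final). CellTiter Glo luminescence; % inhibition relative to DMSO-only wells, fitted to IC50, relative IC50 or % top inhibition.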

AsPC-1 = test: Cell viability assay (CellTiter Glo), pancreatic adenocarcinoma AsPC-1; assay type: cell-based; settings: Homo sapiens, ASPC1
Procedure, shortened: (§6)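 MiaPaCa-2 and AsPC-1 cells were seeded overnight at 37 °C and exposed for 96 h to 9-point, 3-fold dilutions from up to 30 μM (final DMSO ≤0.25%). CellTiter Glo luminescence was read, and inhibition was calculated relative to DMSO-only cells. IC50, relative IC50 or % top inhibition was derived.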

H2228 = test: Cell viability assay (CellTiter Glo), lung cancer cell line H2228; assay type: cell-based; settings: Homo sapiens, NCI-H2228
Procedure, shortened: as §4

MDA-MB-435S = test: Cell viability assay (CellTiter Glo), melanoma cell line MDA-MB-435S; assay type: cell-based; settings: Homo sapiens, 96 hours
Procedure, shortened: as §4

Kasumi-1 = test: Cell viability assay (CellTiter Glo), leukemia cell line Kasumi-1; assay type: cell-based; settings: Homo sapiens, 96 hours
Description: as §1, §2, §3

HCC1954 = test: Cell viability assay (CellTiter Glo), breast cancer cell line HCC1954; assay type: cell-based; settings: Homo sapiens, 96 hours
Procedure, shortened: as §4

HT29 = test: Cell viability assay (CellTiter Glo), colon cancer cell line HT29; assay type: cell-based; settings: Homo sapiens, HT-29, 96 hours
Procedure, shortened: as §4

SW480 = test: Cell viability assay (CellTiter Glo), colon cancer cell line SW480; assay type: cell-based; settings: Homo sapiens, 96 hours
Description: as §1, §2

MV-4-1 = test: Cell viability assay (CellTiter Glo), leukemia cell line MV-4-1; assay type: cell-based; settings: 96 hours
Procedure, shortened: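 Leukemia cells seeded at 5000–10000/well (suspension) and incubated 96 h with compound, 9-point 3-fold dilution from top concentration up to 30 μM, final DMSO ≤0.25%. Luminescence read by CellTiter-Glo; inhibition relative to DMSO-only Max, giving IC50, relative IC50 or % top inhibition.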

REC-1 = test: Cell viability assay (CellTiter Glo), lymphoma cell line REC-1; assay type: cell-based; settings: Homo sapiens, Rec1, 96 hours
Procedure, shortened: as §4

Raji = test: Cell viability assay (CellTiter Glo), lymphoma cell line Raji; assay type: cell-based; settings: Homo sapiens, 96 hours
Procedure, shortened: as §4

143B = test: Cell viability assay (CellTiter Glo), osteosarcoma 143B; assay type: cell-based; settings: Homo sapiens
Procedure, shortened: as §5

in vivo = settings: male, Balb/c nude, mouse, ip, 15 mg/kg, Calculated Concentration
Description: as §9, §10, §11, §12, §13, §14, §15

MiaPaCa-2 = test: Cell viability assay (CellTiter Glo), pancreatic carcinoma MiaPaCa-2; assay type: cell-based; settings: Homo sapiens
Procedure, shortened: as §6

PSN-1 = test: Cell proliferation assay, pancreatic cancer cell line PSN-1; assay type: cell-based; settings: Homo sapiens, PSN1
Description: (§7) Cell viability assay was performed to assess the potency of the compounds in human cancer cell lines 786-O (renal cell carcinoma) and SJSA-1 (osteosarcoma). Additional cell lines, such as those described above in Example 4 as well as various others, e.g., pancreatic cancer cell lines (Panc 02.13, BxPC-3, Panc 12, Panc 02.03, Panc 6.03, PSN-1, HPAC, and Capan-1) and prostate cancer cell lines (PC-3, DU145, 22Rv1, NCI-H660, BPH1, LNCaP, BM-1604, and MDA PCa 2b), were tested for select compounds as shown in Table 25.
(§8) The cell proliferation assays for the compounds shown Table 25 was performed according to the protocols described herein, including Examples 4 and 6.

BxPC-3 = test: Cell proliferation assay, pancreatic cancer cell line BxPC-3; assay type: cell-based; settings: Homo sapiens
Description: as §7, §8

Capan-1 = test: Cell proliferation assay, pancreatic cancer cell line Capan-1; assay type: cell-based; settings: Homo sapiens
Description: as §7, §8

Panc 02.03 = test: Cell proliferation assay, pancreatic cancer cell line Panc 02.03; assay type: cell-based; settings: Homo sapiens
Description: as §7, §8

Panc 6.03 = test: Cell proliferation assay, pancreatic cancer cell line Panc 6.03; assay type: cell-based
Description: as §7, §8

Panc 12 = test: Cell proliferation assay, pancreatic cancer cell line Panc 12; assay type: cell-based; settings: Cell Line Panc 8
Description: as §7, §8

HPAC = test: Cell proliferation assay, pancreatic cancer cell line HPAC; assay type: cell-based; settings: Homo sapiens
Description: as §7, §8

Panc 02.13 = test: Cell proliferation assay, pancreatic cancer cell line Panc 02.13; assay type: cell-based
Description: as §7, §8

U-2 OS = test: Cell proliferation assay, U-2 OS (Table 25); assay type: cell-based; settings: Homo sapiens, U2OS; Cell Line U-2 OS
Description: as §7, §8

- IC50 (HL-60): 16 nM
- exposure (Cmax, AUC) compared with K601 (RSL3) [1]: higher exposure
- IC50 (H1299): 3 nM
- IC50 (SK-OV-3): 17 nM
- IC50 (SJSA-1): 13 nM
- IC50 (Huh7): 22 nM
- concentration at 1.0167 hr ([2]; 1 hour-IV infusion 2 mg/kg): 51.7 ng/mL
- concentration at 1.0833 hr ([2]; 1 hour-IV infusion 2 mg/kg): 14.1 ng/mL
- concentration at 1.25 hr ([2]; 1 hour-IV infusion 2 mg/kg): 4.95 ng/mL
- concentration at 1.5 h ([2]; 1 hour-IV infusion 2 mg/kg): 2.18 ng/mL
- concentration at 1.0167 hr ([2]; 1 hour-IV infusion 4 mg/kg): 159 ng/mL
- concentration at 1.0833 hr ([2]; 1 hour-IV infusion 4 mg/kg): 36.4 ng/mL
- concentration at 1.25 hr ([2]; 1 hour-IV infusion 4 mg/kg): 13.8 ng/mL
- concentration at 1.5 h ([2]; 1 hour-IV infusion 4 mg/kg): 5.07 ng/mL
- concentration at 2 h ([2]; 1 hour-IV infusion 4 mg/kg): 2.62 ng/mL
- concentration at 1.0167 hr ([2]; 1 hour-IV infusion 8 mg/kg): 259 ng/mL
- concentration at 1.0833 hr ([2]; 1 hour-IV infusion 8 mg/kg): 97.5 ng/mL
- concentration at 1.25 hr ([2]; 1 hour-IV infusion 8 mg/kg): 34 ng/mL
- concentration at 1.5 h ([2]; 1 hour-IV infusion 8 mg/kg): 17.3 ng/mL
- concentration at 2 h ([2]; 1 hour-IV infusion 8 mg/kg): 6.52 ng/mL
- concentration at 3 h ([2]; 1 hour-IV infusion 8 mg/kg, 3 hr): 2.92 ng/mL
- IC50 (PANC1): 19 nM
- IC50 (HT-1080 luc2; fibrosarcoma expressing a luciferase gene, 96 hours, CellTiter Glo, read-out: IC50 HT-1080 luc2): 15 nM
- IC50 (AsPC-1; pancreatic adenocarcinoma, ascites, 96 hours, CellTiter Glo, read-out: IC50 AsPC-1): 19 nM
- IC50 (H2228; lung cancer cell line, 96 hours, CellTiter Glo, read-out: IC50 H2228): 18 nM
- IC50 (MDA-MB-435S): 4 nM
- IC50 (Kasumi-1): 88 nM
- IC50 (HCC1954): 39 nM
- IC50 (HT29): 87 nM
- IC50 (SW480): 167 nM
- IC50 (MV-4-1): 21 nM
- IC50 (REC-1): 33 nM
- IC50 (Raji): 9 nM
- IC50 (143B; 96 h, osteosarcoma, 96 hours, CellTiter Glo, read-out: IC50 143B): 4 nM
- concentration at 0.5 h (in vivo): 332 ng/mL
- concentration at 1 h (in vivo): 355 ng/mL
- concentration at 2 h (in vivo): 50.5 ng/mL
- concentration at 4 h (in vivo): 3.41 ng/mL
- concentration at 0.5 h (in vivo; Mean): 464 ng/mL
- concentration at 1 h (in vivo; Mean): 317 ng/mL
- concentration at 2 h (in vivo; Mean): 44.5 ng/mL
- concentration at 4 h (in vivo; Mean): 4.56 ng/mL
- IC50 (MiaPaCa-2; MIA PaCa-2, pancreatic carcinoma, 96 hours, CellTiter Glo, read-out: IC50 MiaPaCa-2): 2 nM
SMILES: COC(=O)[C@H]1Cc2c([nH]c3ccccc23)[C@H](c2ccc(S(=O)(=O)N[C@]34C[C@H]5C[C@H](C[C@H](C5)C3)C4)cc2)N1C(=O)CCl [Example 24]
- IC50 (MCF-10A): 410 nM

- IC50 (PSN-1): 46.2 nM
- IC50 (BxPC-3): 86.7 nM
- IC50 (Capan-1): 261 nM
- IC50 (Panc 02.03): 148 nM
- IC50 (HT-1080 luc2; Cell Line HT1080, read-out: IC50): 7.16 nM
- IC50 (AsPC-1; Cell Line AsPC-1, read-out: IC50): 12.7 nM
- IC50 (H2228; Cell Line H2228, read-out: IC50): 3.37 nM
- IC50 (Panc 6.03): 32.8 nM
- IC50 (Panc 12): 14.8 nM
- IC50 (HPAC): 48.4 nM
- IC50 (Panc 02.13): 216 nM
- IC50 (143B; Cell Line 143B, read-out: IC50): 11.4 nM
- IC50 (MiaPaCa-2; Cell Line Mia PaCa-2, read-out: IC50): 57 nM
SMILES: CC[C@H]1Cc2c([nH]c3ccccc23)[C@H](c2ccc(N3CCOCC3)cc2)N1C(=O)CCl [Example 117]
- IC50 (U-2 OS): 3600 nM
